According to ChEMBL document CHEMBL3813672, “Discovery of anti-cancer activity for benzo[1,2,4]triazin-7-ones: Very strong correlation to pleurotin and thioredoxin reductase inhibition” (Bioorg Med Chem, 2016):

Test system: not listed separately
Test: Cytotoxicity against human GM00637 cells assessed as reduction in cell viability after 72 hrs by MTT assay
Assay type: cell-based
Details: GM00637, 72 h

`COc1cc2nc(-c3ccccc3)nn(-c3ccccc3)c-2cc1=O` and `CCOc1cc2nc(-c3ccccc3)nn(-c3ccccc3)c-2cc1=O` cannot be ordered by IC50: over 5 µM for the first, over 5 µM for the second.

First: CCN(CC)c1cc2nc(-c3ccccc3)nn(-c3ccccc3)c-2cc1=O
Second: CCNc1cc2nc(-c3ccccc3)nn(-c3ccccc3)c-2cc1=O
The IC50 of the first is 11-fold higher: 2.73 µM for the first, 0.24 µM for the second. The second is the more potent here.

Going from `O=c1cc2n(-c3ccccc3)nc(-c3ccccc3)nc-2cc1N1CCCC1` to `O=c1cc2n(-c3ccccc3)nc(-c3ccccc3)nc-2cc1N1CCCCC1`, the IC50 falls from 1.79 µM to 1.19 µM (1.5-fold). The second is the more potent here.

`O=c1cc2n(-c3ccccc3)nc(-c3ccccc3)nc-2cc1N1CCOCC1` and `O=c1cc2n(-c3ccccc3)nc(-c3ccccc3)nc-2cc1N1CCSCC1` are within 1.5-fold of each other in IC50: 2.29 µM for the first, 1.63 µM for the second.

First: CC(=O)Nc1cc2nc(-c3ccccc3)nn(-c3ccccc3)c-2cc1=O
Second: CNc1cc2nc(-c3ccccc3)nn(-c3ccccc3)c-2cc1=O
The IC50 of the first is higher: over 5 µM for the first, 0.93 µM for the second. The second is the more potent here.

First: Nc1cc2nc(-c3ccccc3)nn(-c3ccccc3)c-2cc1=O
Second: C[C@@H]1CO[C@@H]2C3=C(C(=O)C=CC3=O)[C@H]3OC(=O)[C@@H]4CC[C@H]5C1CC[C@@]25[C@@H]34
The IC50 of the first is 4-fold higher: 2.04 µM for the first, 0.51 µM for the second. The second is the more potent here.

Target: not listed separately
Test: Inhibition of recombinant human TRX1/human placental thioredoxin reductase using DTNB as substrate in presence of NADPH by spectrophotometric method
Details: not given

`C[C@@H]1CO[C@@H]2C3=C(C(=O)C=CC3=O)[C@H]3OC(=O)[C@@H]4CC[C@H]5C1CC[C@@]25[C@@H]34` gave an IC50 of 0.17 µM.

Target: Thioredoxin reductase (Homo sapiens, UniProt Q16881+Q9NNW7+Q86VQ6)
Test: Irreversible inhibition of thioredoxin reductase (unknown origin)
Assay type: protein assay
Details: not given

`C[C@@H]1CO[C@@H]2C3=C(C(=O)C=CC3=O)[C@H]3OC(=O)[C@@H]4CC[C@H]5C1CC[C@@]25[C@@H]34` gave a Ki of 0.28 µM.

Test system: not listed separately
Test: Cytotoxicity against human DU145 cells assessed as reduction in cell viability after 72 hrs by MTT assay
Assay type: functional, cell-based
Details: DU-145, 72 h

`COc1cc2nc(-c3ccccc3)nn(-c3ccccc3)c-2cc1=O` and `CCOc1cc2nc(-c3ccccc3)nn(-c3ccccc3)c-2cc1=O` cannot be ordered by IC50: over 5 µM for the first, over 5 µM for the second.

Compared with `CCN(CC)c1cc2nc(-c3ccccc3)nn(-c3ccccc3)c-2cc1=O`, `CCNc1cc2nc(-c3ccccc3)nn(-c3ccccc3)c-2cc1=O` is 14-fold lower in IC50: 3.11 µM for the first, 0.22 µM for the second.

Compared with `O=c1cc2n(-c3ccccc3)nc(-c3ccccc3)nc-2cc1N1CCCC1`, `O=c1cc2n(-c3ccccc3)nc(-c3ccccc3)nc-2cc1N1CCCCC1` is 4-fold lower in IC50: 2.46 µM for the first, 0.61 µM for the second.

First: O=c1cc2n(-c3ccccc3)nc(-c3ccccc3)nc-2cc1N1CCOCC1
Second: O=c1cc2n(-c3ccccc3)nc(-c3ccccc3)nc-2cc1N1CCSCC1
The IC50 of the first is 2.6-fold higher: 3.21 µM for the first, 1.22 µM for the second.

First: CC(=O)Nc1cc2nc(-c3ccccc3)nn(-c3ccccc3)c-2cc1=O
Second: CNc1cc2nc(-c3ccccc3)nn(-c3ccccc3)c-2cc1=O
The IC50 of the first is higher: over 5 µM for the first, 0.98 µM for the second.

First: Nc1cc2nc(-c3ccccc3)nn(-c3ccccc3)c-2cc1=O
Second: C[C@@H]1CO[C@@H]2C3=C(C(=O)C=CC3=O)[C@H]3OC(=O)[C@@H]4CC[C@H]5C1CC[C@@]25[C@@H]34
The IC50 of the first is 4.3-fold higher: 1.83 µM for the first, 0.43 µM for the second.

Test system: MCF7
Test: Cytotoxicity against human MCF7 cells assessed as reduction in cell viability after 72 hrs by MTT assay
Assay type: functional, cell-based
Details: MCF7, 72 h

`COc1cc2nc(-c3ccccc3)nn(-c3ccccc3)c-2cc1=O` and `CCOc1cc2nc(-c3ccccc3)nn(-c3ccccc3)c-2cc1=O` cannot be ordered by IC50: over 5 µM for the first, over 5 µM for the second.

Going from `CCN(CC)c1cc2nc(-c3ccccc3)nn(-c3ccccc3)c-2cc1=O` to `CCNc1cc2nc(-c3ccccc3)nn(-c3ccccc3)c-2cc1=O`, the IC50 falls from over 5 µM to 1.62 µM. The second is the more potent here.

Going from `O=c1cc2n(-c3ccccc3)nc(-c3ccccc3)nc-2cc1N1CCCC1` to `O=c1cc2n(-c3ccccc3)nc(-c3ccccc3)nc-2cc1N1CCCCC1`, the IC50 rises from 0.36 µM to 1.98 µM (5.5-fold).

Going from `O=c1cc2n(-c3ccccc3)nc(-c3ccccc3)nc-2cc1N1CCOCC1` to `O=c1cc2n(-c3ccccc3)nc(-c3ccccc3)nc-2cc1N1CCSCC1`, the IC50 falls from 2.37 µM to 0.97 µM (2.4-fold). The second is the more potent here.

First: CC(=O)Nc1cc2nc(-c3ccccc3)nn(-c3ccccc3)c-2cc1=O
Second: CNc1cc2nc(-c3ccccc3)nn(-c3ccccc3)c-2cc1=O
The IC50 of the first is higher: over 5 µM for the first, 0.69 µM for the second.

Compared with `Nc1cc2nc(-c3ccccc3)nn(-c3ccccc3)c-2cc1=O`, `C[C@@H]1CO[C@@H]2C3=C(C(=O)C=CC3=O)[C@H]3OC(=O)[C@@H]4CC[C@H]5C1CC[C@@]25[C@@H]34` is 3.4-fold lower in IC50: 0.95 µM for the first, 0.28 µM for the second. The second is the more potent here.
